Measurements from article PMC7658347, “The cryo-EM structure of a γ-TuSC elucidates architecture and regulation of minimal microtubule nucleation systems” (Nature Communications, 2020).

Biological target: T1, C. albicans γ-TuSC (γ-tubulin small complex; Spc97, Spc98, γ-tubulin/Tub4) (Candida albicans, UniProt O93807)
T1 construct: full-length, codon-optimized genes, expressed in SF21 insect cells; heterotetramer; N-terminal 91 (Spc97) and 149 (Spc98) residues not resolved; with Spindle pole body component (Spc97); Spindle pole body component (Spc98)
T1 sequence (O93807 1-502): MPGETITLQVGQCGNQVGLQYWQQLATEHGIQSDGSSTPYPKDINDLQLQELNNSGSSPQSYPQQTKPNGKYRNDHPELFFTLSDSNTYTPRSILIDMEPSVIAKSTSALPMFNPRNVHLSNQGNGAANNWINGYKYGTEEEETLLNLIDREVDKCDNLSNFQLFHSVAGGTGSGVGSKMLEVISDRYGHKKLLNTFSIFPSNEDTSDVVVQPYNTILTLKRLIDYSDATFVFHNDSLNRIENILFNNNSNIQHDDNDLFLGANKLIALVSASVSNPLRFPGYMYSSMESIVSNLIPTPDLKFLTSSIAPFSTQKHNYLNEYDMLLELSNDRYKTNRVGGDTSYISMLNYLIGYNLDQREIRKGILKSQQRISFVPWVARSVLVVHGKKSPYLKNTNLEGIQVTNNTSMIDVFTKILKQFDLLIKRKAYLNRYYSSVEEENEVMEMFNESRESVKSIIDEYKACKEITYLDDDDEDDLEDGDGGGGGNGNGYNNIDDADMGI
T1 sequence (Q59PZ2 1-871 partner): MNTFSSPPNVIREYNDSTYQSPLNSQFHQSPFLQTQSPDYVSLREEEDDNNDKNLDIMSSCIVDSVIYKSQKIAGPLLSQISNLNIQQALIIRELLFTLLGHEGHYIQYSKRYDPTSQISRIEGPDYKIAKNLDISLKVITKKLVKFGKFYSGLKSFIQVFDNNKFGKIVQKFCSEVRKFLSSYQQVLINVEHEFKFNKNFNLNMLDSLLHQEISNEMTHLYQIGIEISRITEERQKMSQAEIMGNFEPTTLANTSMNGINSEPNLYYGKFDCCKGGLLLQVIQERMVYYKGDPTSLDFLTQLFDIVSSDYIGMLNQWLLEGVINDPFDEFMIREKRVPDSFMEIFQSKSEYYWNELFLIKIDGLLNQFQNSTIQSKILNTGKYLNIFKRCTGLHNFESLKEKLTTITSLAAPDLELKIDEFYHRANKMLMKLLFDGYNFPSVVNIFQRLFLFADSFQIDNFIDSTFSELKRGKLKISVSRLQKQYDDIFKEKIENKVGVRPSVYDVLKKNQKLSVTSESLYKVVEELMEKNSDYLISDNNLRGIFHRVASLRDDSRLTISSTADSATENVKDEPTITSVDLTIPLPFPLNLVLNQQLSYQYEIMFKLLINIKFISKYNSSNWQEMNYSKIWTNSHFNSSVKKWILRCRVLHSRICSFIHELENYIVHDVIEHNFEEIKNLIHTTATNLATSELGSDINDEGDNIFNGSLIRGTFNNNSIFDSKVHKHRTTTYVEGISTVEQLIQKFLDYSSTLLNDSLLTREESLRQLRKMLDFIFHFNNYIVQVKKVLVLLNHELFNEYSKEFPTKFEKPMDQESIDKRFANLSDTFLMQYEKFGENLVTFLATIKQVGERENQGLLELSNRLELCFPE
T1 sequence (A0A1D8PS42 1-785 partner): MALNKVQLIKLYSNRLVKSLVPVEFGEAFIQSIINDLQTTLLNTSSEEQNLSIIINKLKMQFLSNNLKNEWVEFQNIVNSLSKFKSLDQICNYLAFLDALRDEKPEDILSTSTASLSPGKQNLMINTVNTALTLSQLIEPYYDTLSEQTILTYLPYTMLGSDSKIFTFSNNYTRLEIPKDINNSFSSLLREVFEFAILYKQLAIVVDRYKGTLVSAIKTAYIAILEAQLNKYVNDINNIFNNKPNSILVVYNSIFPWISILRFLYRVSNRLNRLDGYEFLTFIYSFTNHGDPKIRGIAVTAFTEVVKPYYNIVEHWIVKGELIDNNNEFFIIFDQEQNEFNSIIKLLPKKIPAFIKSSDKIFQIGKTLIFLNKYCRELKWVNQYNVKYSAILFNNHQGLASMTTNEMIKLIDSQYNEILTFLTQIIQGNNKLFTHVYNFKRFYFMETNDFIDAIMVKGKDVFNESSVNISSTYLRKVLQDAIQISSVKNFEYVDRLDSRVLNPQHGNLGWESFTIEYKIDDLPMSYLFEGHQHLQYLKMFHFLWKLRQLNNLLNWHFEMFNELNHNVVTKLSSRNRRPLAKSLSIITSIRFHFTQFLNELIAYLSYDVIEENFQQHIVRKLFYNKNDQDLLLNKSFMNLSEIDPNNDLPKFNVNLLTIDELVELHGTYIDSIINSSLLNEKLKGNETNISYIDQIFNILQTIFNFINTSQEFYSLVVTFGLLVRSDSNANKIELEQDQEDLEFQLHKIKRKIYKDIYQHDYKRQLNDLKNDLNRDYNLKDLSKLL
Assay: cryo-EM structure ([…] Å)
Details: co-purified nucleotide, none added; nucleotide-binding pocket of γ-tubulin; assigned from density lacking γ-phosphate; Table 1 lists 0 ligands in the refined model

## Nc1nc2c(ncn2[C@@H]2O[C@H](COP(=O)(O)OP(=O)(O)O)[C@@H](O)[C@H]2O)c(=O)[nH]1 [GDP]
  cryo-EM structure (3.6 Å): Our cryo-EM density of the C. albicans γ-TuSC indicates binding of GDP, rather than GTP
